The results in this text go back to patent US20230295118A1 (EnhancedBio Inc., priority 2022, published 2023).

In general, DC50 refers to the concentration giving 50% degradation. A word on the Dmax: it is the greatest extent of degradation seen.

Assay type in all cases: cell-based
Assay [1] has as its system mantle cell lymphoma cell (Mino or JeKo-1). Briefly: Antiproliferative effect, MTS cell viability assay. As to conditions: 72 h, mantle cell lymphoma cell (Mino or JeKo-1), MTS assay, read-out: IC50 (anti-proliferation). The essentials:
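MTS read-out (formazan absorbance at 490 nm) after 72 h exposure of Mino cells to 0–1 μM compound (0.0001, 0.001, 0.01, 0.1, 1 μM). Palbociclib and abemaciclib served as positive controls.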

The target of another assay is T1, CDK4 (Homo sapiens, UniProt P11802).
T1 construct: endogenous in cells
Briefly: CDK4 degradation (DC50, Dmax).

The next assay concerns the target T2, CDK6 (Homo sapiens, UniProt Q00534).
T2 construct: endogenous in cells
Briefly: CDK6 degradation (DC50, Dmax).

T2 sequence (Q00534 whole entry): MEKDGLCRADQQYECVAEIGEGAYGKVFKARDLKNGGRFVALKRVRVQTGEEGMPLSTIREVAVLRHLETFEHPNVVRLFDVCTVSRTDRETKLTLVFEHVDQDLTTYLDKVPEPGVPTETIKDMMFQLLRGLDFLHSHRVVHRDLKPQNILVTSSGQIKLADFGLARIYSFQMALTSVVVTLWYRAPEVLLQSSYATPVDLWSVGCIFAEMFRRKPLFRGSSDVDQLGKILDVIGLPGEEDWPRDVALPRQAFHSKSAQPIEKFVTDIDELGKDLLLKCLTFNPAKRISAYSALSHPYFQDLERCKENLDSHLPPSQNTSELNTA
T1 sequence (P11802 whole entry): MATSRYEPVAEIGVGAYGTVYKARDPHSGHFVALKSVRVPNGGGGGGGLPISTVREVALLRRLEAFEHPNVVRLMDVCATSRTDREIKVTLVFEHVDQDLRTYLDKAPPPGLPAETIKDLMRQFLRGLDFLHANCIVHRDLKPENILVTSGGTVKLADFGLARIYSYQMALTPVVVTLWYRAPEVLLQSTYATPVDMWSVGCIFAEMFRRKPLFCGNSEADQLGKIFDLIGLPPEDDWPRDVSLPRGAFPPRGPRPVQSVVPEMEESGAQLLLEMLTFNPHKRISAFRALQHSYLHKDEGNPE

With `Cc1nc2c(F)cc(-c3nc(Nc4ccc(CN5CCN(c6cccc7c6C(=O)N(C6CCC(=O)NC6=O)C7=O)CC5)cn4)ncc3F)cc2n1C(C)C` (stereo not shown) [Compound 101, 2-(2,6-dioxopiperidin-3-yl)-4-(4-((6-((5-fluoro-4-(4-fluoro-1-isopropyl-2-methyl-1H-benzo[d]imidazol-6-yl)pyrimidin-2-yl)amino)pyridin-3-yl)methyl)piperazin-1-yl)isoindoline-1,3-dione], the IC50 in assay [1] is 0.05 to 0.2 µM. Besides, the DC50 at CDK4 and at CDK6 was 0.05 to 0.2 µM each time. For the same compound, the values for the Dmax at CDK4 and on CDK6 were more than 60% and more than 80%, respectively.
In the case of `Cc1nc2c(F)cc(-c3nc(Nc4ccc(CN5CCN(C6CCN(c7ccc(C(=O)NC8CCC(=O)NC8=O)cc7)CC6)CC5)cn4)ncc3F)cc2n1C(C)C` (stereo not shown) [Compound 150, N-(2,6-dioxopiperidin-3-yl)-4-(4-(4-((6-((5-fluoro-4-(4-fluoro-1-isopropyl-2-methyl-1H-benzo[d]imidazol-6-yl)pyrimidin-2-yl)amino)pyridin-3-yl)methyl)piperazin-1-yl)piperidin-1-yl)benzamide], in assay [1], the IC50 was less than 0.05 µM. Further, on CDK4, the DC50 is less than 0.05 µM and the Dmax was more than 80%. At CDK6, this compound came in with a half-maximal degradation concentration (DC50) of less than 0.05 µM and a Dmax of more than 80%.
Take `CC(=O)c1c(C)c2cnc(Nc3ccc(N4CCN(C(=O)N5CCC(CN6CCC(c7ccc8c(c7)C(=O)N(C7CCC(=O)NC7=O)C8=O)CC6)CC5)CC4)cn3)nc2n(C2CCCC2)c1=O` (stereo not shown) [Compound 17, 5-(1-((1-(4-(6-((6-acetyl-8-cyclopentyl-5-methyl-7-oxo-7,8-dihydropyrido[2,3-d]pyrimidin-2-yl)amino)pyridin-3-yl)piperazine-1-carbonyl)piperidin-4-yl)methyl)piperidin-4-yl)-2-(2,6-dioxopiperidin-3-yl)isoindoline-1,3-dione]: in assay [1], the IC50 was 0.05 to 0.2 µM. Besides, the DC50 on CDK4 and at CDK6 was 0.05 to 0.2 µM throughout. Moreover, the Dmax on CDK4 and on CDK6 was more than 50% throughout.
For `CC(=O)c1c(C)c2cnc(Nc3ccc(N4CCN(C(=O)N5CCC(N6CCC(c7ccc8c(c7)CN(C7CCC(=O)NC7=O)C8=O)CC6)CC5)CC4)cn3)nc2n(C2CCCC2)c1=O` (stereo not shown) [Compound 8, 3-(5-(1′-(4-(6-((6-acetyl-8-cyclopentyl-5-methyl-7-oxo-7,8-dihydropyrido[2,3-d]pyrimidin-2-yl)amino)pyridin-3-yl)piperazine-1-carbonyl)-[1,4′-bipiperidin]-4-yl)-1-oxoisoindolin-2-yl)piperidine-2,6-dione], the IC50 in assay [1] is more than 0.2 µM. Also, the DC50 on CDK4 and on CDK6 was more than 0.2 µM in each case. Further, the Dmax on CDK4 is more than 60%; on CDK6 it was more than 50%.
`CC(=O)c1c(C)c2cnc(Nc3ccc(N4CCN(CC5CCN(c6ccc(N7CCC(=O)NC7=O)cc6)CC5)CC4)cn3)nc2n(C2CCCC2)c1=O` [Compound 112, 1-(4-(4-((4-(6-((6-acetyl-8-cyclopentyl-5-methyl-7-oxo-7,8-dihydropyrido[2,3-d]pyrimidin-2-yl)amino)pyridin-3-yl)piperazin-1-yl)methyl)piperidin-1-yl)phenyl) dihydropyrimidine-2,4(1H,3H)-dione]: in assay [1], the IC50 is less than 0.05 µM. Also, the DC50 at CDK4 is less than 0.05 µM; on CDK6 it was 0.05 to 0.2 µM. The Dmax on CDK4 and on CDK6 was more than 80% in each case.
As for `CC(=O)c1c(C)c2cnc(Nc3ccc(N4CCN(CCN5CCC(c6ccc7c(c6)C(=O)N(C6CCC(=O)NC6=O)C7=O)CC5)CC4)cn3)nc2n(C2CCCC2)c1=O` (stereo not shown) [Compound 71, 5-(1-(2-(4-(6-((6-acetyl-8-cyclopentyl-5-methyl-7-oxo-7,8-dihydropyrido[2,3-d]pyrimidin-2-yl)amino)pyridin-3-yl)piperazin-1-yl)ethyl)piperidin-4-yl)-2-(2,6-dioxopiperidin-3-yl)isoindoline-1,3-dione], the IC50 in assay [1] lay in the range of 0.05 to 0.2 µM. At CDK4, this compound had a DC50 of more than 0.2 µM and a Dmax of more than 60%. At CDK6, this compound yielded a DC50 of more than 0.2 µM and a Dmax of more than 60%.
As to `CC(=O)c1c(C)c2cnc(Nc3ccc(N4CCN(C5CCN(C(=O)N6CCC(C7CCN(c8ccc9c(c8)C(=O)N(C8CCC(=O)NC8=O)C9=O)CC7)CC6)CC5)CC4)cn3)nc2n(C2CCCC2)c1=O` (stereo not shown) [Compound 85, 5-(1′-(4-(4-(6-((6-acetyl-8-cyclopentyl-5-methyl-7-oxo-7,8-dihydropyrido[2,3-d]pyrimidin-2-yl)amino)pyridin-3-yl)piperazin-1-yl)piperidine-1-carbonyl)-[4,4′-bipiperidin]-1-yl)-2-(2,6-dioxopiperidin-3-yl) isoindoline-1,3-dione], the IC50 in assay [1] is more than 0.2 µM. Moreover, on CDK4, the DC50 was more than 0.2 µM and the Dmax was more than 60%. On CDK6, the DC50 is more than 0.2 µM and the Dmax was more than 60%.
Consider `CC(=O)c1c(C)c2cnc(Nc3ccc(N4CCN(CCCCNc5ccc6c(c5)CN(C5CCC(=O)NC5=O)C6=O)CC4)cn3)nc2n(C2CCCC2)c1=O` (stereo not shown) [Compound 54, 3-(5-((4-(4-(6-((6-acetyl-8-cyclopentyl-5-methyl-7-oxo-7,8-dihydropyrido[2,3-d]pyrimidin-2-yl)amino)pyridin-3-yl)piperazin-1-yl)butyl)amino)-1-oxoisoindolin-2-yl)piperidine-2,6-dione], for which the IC50 in assay [1] is less than 0.05 µM. At CDK4, this compound had a DC50 of 0.05 to 0.2 µM and a Dmax of more than 60%. At CDK6, this compound gave a DC50 of 0.05 to 0.2 µM and a Dmax of more than 60%.
For the compound `CC(=O)c1c(C)c2cnc(Nc3ccc(N4CCN(C(=O)C5CCN(c6ccc(C(=O)NC7CCC(=O)NC7=O)cc6)CC5)CC4)cn3)nc2n(C2CCCC2)c1=O` (stereo not shown) [Compound 116, 4-(4-(4-(6-((6-acetyl-8-cyclopentyl-5-methyl-7-oxo-7,8-dihydropyrido[2,3-d]pyrimidin-2-yl)amino)pyridin-3-yl)piperazine-1-carbonyl)piperidin-1-yl)-N-(2,6-dioxopiperidin-3-yl)benzamide], the IC50 in assay [1] was in the range of 0.05 to 0.2 µM. Moreover, on CDK4, the DC50 was 0.05 to 0.2 µM and the Dmax is more than 80%. At CDK6, this compound showed a DC50 of 0.05 to 0.2 µM and a Dmax of more than 80%.
`CC(=O)c1c(C)c2cnc(Nc3ccc(N4CCN(C(=O)C5CN(c6ccc7c(c6)C(=O)N(C6CCC(=O)NC6=O)C7=O)C5)CC4)cn3)nc2n(C2CCCC2)c1=O` (stereo not shown) [Compound 121, 5-(3-(4-(6-((6-acetyl-8-cyclopentyl-5-methyl-7-oxo-7,8-dihydropyrido[2,3-d]pyrimidin-2-yl)amino)pyridin-3-yl)piperazine-1-carbonyl)azetidin-1-yl)-2-(2,6-dioxopiperidin-3-yl)isoindoline-1,3-dione]: in assay [1], the IC50 is less than 0.05 µM. At CDK4, the DC50 is less than 0.05 µM and the Dmax is more than 80%. On CDK6, this compound displayed a DC50 of less than 0.05 µM and a Dmax of more than 80%.
In the case of `CC(=O)c1c(C)c2cnc(Nc3ccc(N4CCN(CCC5CCN(C(=O)Nc6ccc7c(c6)CN(C6CCC(=O)NC6=O)C7=O)CC5)CC4)cn3)nc2n(C2CCCC2)c1=O` (stereo not shown) [Compound 46, 4-(2-(4-(6-((6-acetyl-8-cyclopentyl-5-methyl-7-oxo-7,8-dihydropyrido[2,3-d]pyrimidin-2-yl)amino)pyridin-3-yl)piperazin-1-yl)ethyl)-N-(2-(2,6-dioxopiperidin-3-yl)-1-oxoisoindolin-5-yl)piperidine-1-carboxamide], the IC50 in assay [1] was 0.05 to 0.2 µM. At CDK4, this compound came in with a DC50 of more than 0.2 µM and a Dmax of more than 60%. Also, on CDK6, the DC50 lay within 0.05 to 0.2 µM and the Dmax is more than 60%.
